Test results published in article PMC12785583, “Coconut Milk-Derived Bioactive Peptides as Multifunctional Agents Against Hyperglycemia, Oxidative Stress, and Glycation: An Integrated Experimental and Computational Study” (International Journal of Molecular Sciences, 2025).
Like-named read-outs stand apart in the source and are kept apart here.

Legend:
[1] = DPPH radical scavenging assay; settings: for EC50: read-out: DPPH Radical Scavenging Assay EC50 (value in bracket) (converted)
Procedure: The antioxidant assays of the test compounds were conducted in vitro, following previous studies, using the standard DPPH, ABTS, and superoxide radical scavenging assays. Regarding the DPPH assay, 0.2 mL of the test samples (peptides 1 and 2) at various concentrations was added to 1.2 mL of a 40 μg/mL DPPH solution in methanol. The mixtures were shaken vigorously and incubated in the dark for 20 min, after which the reduction in DPPH absorption was measured at 517 nm. The samples without DPPH and with methanol served as blanks. Ascorbic acid was used as the positive control.

[2] = ABTS radical scavenging assay; settings: for EC50: read-out: ABTS Radical Scavenging Assay EC50 (value in bracket) (converted)
Procedure: Concerning the ABTS assay, the ABTS^•+ radical cation was generated. Subsequently, 0.05 mL of the test samples (peptides 1 and 2) at various concentrations was mixed with 4.00 mL of ABTS^•+ solution and kept in the dark at room temperature for two h. The absorbance was determined at 734 nm using a UV–Vis Spectrophotometer (UV-1280 Shimadzu, Germany). Ascorbic acid was used as the positive control, and samples without the ABTS radical solution served as blanks. The results were expressed as the effective concentration (EC50) values.

[3] = superoxide radical scavenging assay (NBT); settings: for EC50: read-out: Superoxide Radical Scavenging Assay EC50 (value in bracket) (converted)
Procedure: After 10 min of incubation at 25 °C in the dark, absorbance was recorded at 560 nm. Samples without NBT served as blanks, and ascorbic acid was used as the positive control. The results were expressed as the effective concentration (EC50) values.

[4] = methylglyoxal scavenging (Maillard reaction model, DNPH assay)
Procedure: This preliminary assay was conducted to evaluate the methylglyoxal scavenging activity of peptides derived from coconut milk. The Maillard reaction was employed to assess the scavenging potential of peptides against methylglyoxal, using parameters as outlined in previous studies by Risum et al., Zhu et al., and Brings et al., with modifications. The reaction mixture (1 mL) consisted of both peptides at different concentrations, methylglyoxal (0.01 mM), phosphate buffer, and water. It was incubated at two temperatures: room temperature (followed by immediate termination) and 37 °C (for 2 h). Following the incubation time, the reaction was terminated by adding 10 μL of glacial acetic acid. Creatine was used as a positive control. The experiments were performed in triplicate.
The scavenging potential of the peptides against methylglyoxal was determined using the DNPH assay. In brief, 25 μL of the sample was mixed with 975 μL of water and 1000 μL of DNPH reagent. The reaction mixture was shaken well and incubated at 37 °C for 10 min. Following incubation, the reaction was terminated by adding 1000 μL of 1.5 N NaOH, and the absorbance of the yellowish-orange complex was measured at 525 nm using […]: the MGO blank and the Creatine blank. Scavenging efficiency was calculated using Equations (4) and (5).(4) ACORR=Asample−Ablank (5) MGOscavenging=1−Acorr/AMGO,corr·100 where Asample is the absorbance of the reaction mixture containing methylglyoxal and the test compound (peptide or creatine), Ablank is the absorbance of the reagent blank (without methylglyoxal and without test compound), and AMGO,corr is the blank-corrected absorbance of the methylglyoxal blank (AMGO-Ablank). The creatine control was processed in the same way as the peptide samples.

aldose reductase [5] = target: aldose reductase; set-up: method as in doi:10.3390/separations9090262; settings: cited from earlier work
human aldose reductase = target: human aldose reductase; set-up: method as in doi:10.1016/j.fbio.2025.107775; settings: cited from earlier work
[6] = cited from earlier work
[7] = target: T1, porcine pancreatic α-amylase (Sus scrofa, UniProt P00690); test: α-amylase inhibition assay; type: biochemical
T1 construct: purchased SRL (Sisco Research Laboratories)
T1 sequence (P00690 16-511): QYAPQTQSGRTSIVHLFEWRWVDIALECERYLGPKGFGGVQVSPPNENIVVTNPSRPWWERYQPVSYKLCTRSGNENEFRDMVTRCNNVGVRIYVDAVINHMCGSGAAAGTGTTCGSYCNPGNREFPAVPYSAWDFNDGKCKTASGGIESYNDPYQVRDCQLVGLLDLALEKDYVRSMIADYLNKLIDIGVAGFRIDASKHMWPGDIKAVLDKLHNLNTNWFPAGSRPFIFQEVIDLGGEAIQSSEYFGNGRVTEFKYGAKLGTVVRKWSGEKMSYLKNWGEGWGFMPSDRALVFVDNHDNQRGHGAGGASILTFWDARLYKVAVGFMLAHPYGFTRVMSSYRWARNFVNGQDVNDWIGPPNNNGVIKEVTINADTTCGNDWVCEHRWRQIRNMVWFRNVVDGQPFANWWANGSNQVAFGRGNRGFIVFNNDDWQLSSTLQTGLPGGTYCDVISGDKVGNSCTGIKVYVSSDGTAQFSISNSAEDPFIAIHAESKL
Procedure: The enzymatic reaction was initiated by adding the starch substrate and allowed to proceed for 15 min. The reaction was then terminated by adding the 3,5-dinitrosalicylic acid (DNSA) reagent, and the mixture was heated to boiling for 5 min. […] IC50 values were obtained from plots of percentage inhibition versus sample concentration.

yeast α-glucosidase = test: α-glucosidase inhibition assay; type: biochemical, Saccharomyces cerevisiae; settings: for IC50: read-out: α-Glucosidase Inhibition IC50 (value in bracket) (converted)
Procedure: The α-glucosidase inhibition assay was performed following the method described by Huligere et al.. […] In this assay, one unit of activity was defined as the amount of enzyme required to release one µmol of p-nitrophenol from pNPG per minute under the specified experimental conditions. […] The reaction was maintained at 37 °C for an additional 20 min. Enzyme activity was determined by measuring the absorbance of liberated p-nitrophenol at 405 nm using a microplate reader (Spectramax i3, Molecular Devices, LLC, San Jose, CA, USA). […] IC50 values were determined by relating the percentage inhibition of each sample to its concentration.

human erythrocytes = test: hemolytic assay; type: cell-based
Procedure: The hemolytic potential of the lead peptides was determined following an established erythrocyte hemolysis protocol. In brief, 15 mL of venous blood was drawn from a healthy individual, centrifuged at 3000 rpm for 10 min, and the plasma was discarded. The residual pellet (RBCs) was washed 3 times with PBS (pH 7.4, 0.1 M), and the resultant pellet was resuspended in PBS in a 1:10 ratio. Subsequently, 0.9 mL of the RBC suspension was incubated with 0.1 mL of peptides at various concentrations, a negative control (100 μL PBS + 900 μL RBC suspension), and a positive control (100 μL of 0.5% Triton-X-100 + 900 μL of RBC suspension), and incubated at 37 °C for 24 h. Post incubation, all tubes were centrifuged at 3000 rpm for 10 min. 0.1 mL of the supernatant was then transferred to 96-well plates, and the absorbance of the supernatant was read at 540 nm. […] The corrected values were calculated as Acontrol=Apos−Aneg and Asample=Atest−Aneg where Apos , Aneg and Atest are the absorbance values of the positive control, negative control, and peptide-treated sample (given concentration), respectively.

α-amylase = target: T2, α-amylase (Sus scrofa, UniProt P00690); test: enzyme inhibition kinetics (Lineweaver-Burk), α-amylase; type: biochemical, porcine; set-up: Vmax: unit not given here
T2 construct: purchased SRL (Sisco Research Laboratories)
T2 sequence (P00690 16-511): T1 sequence (P00690 16-511)
Source text: (§1) Enzyme inhibition by coconut milk peptide 2 was further characterised for α-glucosidase, α-amylase and aldose reductase by steady-state kinetic analysis. […] In this context, v denotes the initial rate of product formation, whereas [S] denotes the concentration of the chromogenic or natural substrate used in each assay. Michaelis explained how v depends on [S] for each condition, as described by the Michaelis–Menten equation (Equation (2)):(2) v=VmaxS/Km+S Lineweaver–Burk double-reciprocal plots (Equation (3)) were then constructed by plotting 1/v versus 1/[S]:(3) 1/v=Km/Vmax·1/S+1/Vmax Michaelis–Menten parameters (Km and Vmax) and apparent inhibition constants (Ki) were obtained from these Lineweaver–Burk plots.

aldose reductase [8] = target: T3, aldose reductase (Homo sapiens, UniProt P15121); test: aldose reductase inhibition assay; type: biochemical
Procedure: The aldose reductase inhibition assay was performed according to the method described by Alharbi et al.. Briefly, a 1 mL reaction mixture comprised 0.87 mL of 100 mM Sodium phosphate buffer (pH 6.2), 0.05 mL of 3 mM NADPH, 0.01 mL of human aldose reductase (recombinant, 0.2 U/mL), with the enzyme’s activity being 0.2 IU/mL, and 0.02 mL of test compounds (designated as peptide 1 and peptide 2) at different concentrations. 0.05 mL of the substrate (DL-glyceraldehyde, five mM) was incubated in the reaction mixture for 3 min at 25 °C. Enzyme activity was determined by measuring the reduction in NADPH absorption at 340 nm over 10 min. […] Aldose reductase inhibitory activity was expressed as the percentage of inhibition.

α-glucosidase = test: enzyme inhibition kinetics (Lineweaver-Burk), α-glucosidase; type: biochemical, Saccharomyces cerevisiae; set-up: Vmax: unit not given here
Source text: as §1

aldose reductase [9] = target: T3, aldose reductase; test: enzyme inhibition kinetics (Lineweaver-Burk), aldose reductase; type: biochemical; set-up: Vmax: unit not given here
Source text: as §1

[10] = read-out: Methylglyoxal Scavenging EC50 at 37 °C, 2 h (value in bracket), 37 °C, 2 h
[11] = room temperature, immediate termination, read-out: Methylglyoxal Scavenging EC50 at RT (value in bracket) (converted)
[12] = mean ± SE, read-out: Ki (apparent inhibition constant) (converted)

O=C1O[C@H]([C@@H](O)CO)C(O)=C1O [Ascorbic acid, reference compound]
DPPH Radical Scavenging Assay EC50 [1]: 28.65 ± 0.17 µg/mL
EC50 [1]: 163 µM
ABTS Radical Scavenging Assay EC50 [2]: 22.74 ± 0.27 µg/mL
EC50 [2]: 129 µM
Superoxide Radical Scavenging Assay EC50 [3]: 57.71 ± 0.16 µg/mL
EC50 [3]: 328 µM

CN(CC(=O)O)C(=N)N [Creatine, reference compound]
Methylglyoxal Scavenging EC50 at 37 °C, 2 h ([4]; 37 °C, 2 h): 230.05 ± 0.34 µg/mL
EC50 [4, 10]: 1750 µM
EC50 [4, 11]: 1750 µM

C[C@@H]1O[C@@H](OC[C@H]2O[C@@H](Oc3c(-c4ccc(O)c(O)c4)oc4cc(O)cc(O)c4c3=O)[C@H](O)[C@@H](O)[C@@H]2O)[C@H](O)[C@H](O)[C@H]1O [rutin]
aldose reductase IC50 (aldose reductase [5]): 7.86 ± 0.33 µg/mL

O=C(O)Cn1c(=O)n(Cc2ccc(Br)cc2F)c(=O)c2ccc(Cl)cc21 [zenarestat]
human aldose reductase IC50 (human aldose reductase): 59.68 ± 0.47 µg/mL

GDMNP
superoxide anion radical scavenging EC50 [6]: 400 ± 8 µg/mL

H-ADVFNPR-OH [Peptide 2, ADVFNPR]
IC50 ([7]; mean ± SD, read-out: α-Amylase Inhibition IC50 (converted)): 103 µM
IC50 ([7]; read-out: α-Amylase Inhibition IC50 (value in bracket) (converted)): 103 µM
IC50 (yeast α-glucosidase; listed as peptide 2): 40.1 µM
α-Glucosidase Inhibition IC50 (yeast α-glucosidase; mean ± SD): 32.82 ± 0.17 µg/mL
IC50 (yeast α-glucosidase): 40.1 µM
Hemolytic Assay (HC50) (human erythrocytes): 231.53 ± 0.14 µg/mL
Hemolytic Assay (HC50) (value in bracket) (human erythrocytes; red cells of human, 24 h): 283.08 µM
DPPH Radical Scavenging Assay EC50 [1]: 22.14 ± 0.12 µg/mL
EC50 [1]: 27.1 µM
Methylglyoxal Scavenging EC50 at 37 °C, 2 h ([4]; 37 °C, 2 h): 182.17 ± 0.23 µg/mL
EC50 [4, 10]: 223 µM
Methylglyoxal Scavenging EC50 at RT ([4]; room temperature, immediate termination): 208.10 ± 0.65 µg/mL
EC50 [4, 11]: 254 µM
Vmax (α-amylase; IC20—33.55 µg): 27.75
Vmax (α-amylase; IC40—67.10 µg): 26.26
Vmax (α-amylase; IC60—100.60 µg): 27.50
Mode of inhibition (α-amylase; from Lineweaver–Burk plot): Competitive
Ki (α-amylase; [12]): 1.64 µM
Vmax (essentially constant) (α-amylase; over IC20–IC60): ~27 µM/min
IC50 (aldose reductase [8]; mean ± SD, read-out: Aldose Reductase Inhibition IC50 (converted)): 24.8 µM
IC50 (aldose reductase [8]; read-out: Aldose Reductase Inhibition IC50 (value in bracket) (converted)): 24.8 µM
ABTS Radical Scavenging Assay EC50 [2]: 17.89 ± 0.20 µg/mL
EC50 [2]: 21.9 µM
Superoxide Radical Scavenging Assay EC50 [3]: 42.45 ± 0.30 µg/mL
EC50 [3]: 51.9 µM
Vmax (α-glucosidase; IC20—13.13 µg): 14.87
Vmax (α-glucosidase; IC40—26.26 µg): 14.68
Vmax (α-glucosidase; IC60—39.39 µg): 14.50
Mode of inhibition (α-glucosidase; from Lineweaver–Burk plot): Competitive
Ki (apparent inhibition constant) (α-glucosidase; mean ± SE): 0.95 ± 0.09 µg
Vmax (essentially constant) (α-glucosidase; over IC20–IC60): ~15 µM/min
Vmax (aldose reductase [9]; IC20—8.12 µg): 46.64
Vmax (aldose reductase [9]; IC40—16.23 µg): 46.02
Vmax (aldose reductase [9]; IC60—24.35 µg): 45.55
Mode of inhibition (aldose reductase [9]; from Lineweaver–Burk plot): Competitive
Ki (aldose reductase [9]; [12]): 0.954 µM
Vmax (essentially constant) (aldose reductase [9]; over IC20–IC60): ~46 µM/min

LLLRW
superoxide anion radical scavenging EC50 [6]: 430 ± 12 µg/mL
